Legend:
[1] = system: Leishmania donovani; assay: Antileishmanial activity against promastigote stage of wild type Leishmania donovani MHOM/80/IN/Dd8 after 48 hrs by MTT assay; assay type: functional, organism-based; conditions: MHOM/80/IN/Dd8, 48 h
[2] = Cytotoxicity against mouse J774A1 cells after 48 hrs by MTT assay; assay type: cell-based, J774.A1
[3] = Selectivity index, ratio of CC50 for mouse J774A1 cells to IC50 for promastigote stage of wild type Leishmania donovani MHOM/80/IN/Dd8; assay type: functional, J774.A1
[4] = Half life in human; assay type: ADME, organism-based; conditions: in vivo

| Compound | IC50 ([1]; read-out: IC50) [µM] | IC50 ([1]; read-out: pIC50 (converted)) [µM] | CC50 at 48 h [2] [µM] | Ratio CC50/IC50 [3] | half-life [4] [h] |
| --- | --- | --- | --- | --- | --- |
| COP(=O)(OC)C1(Nc2ccccc2)CCCCC1 | 16.4 | 16.2 | 7.5 | 0.46 |  |
| COP(=O)(OC)C(Nc1ccccc1)c1ccccc1 (racemic) | 13.5 | 13.5 | 12.5 | 0.93 |  |
| COP(=O)(OC)C(Nc1ccccc1)C1CCCCC1 (racemic) | > 100 |  | 14 |  |  |
| COP(=O)(OC)C(Nc1ccccc1)c1ccc(N(C)C)cc1 (racemic) | > 100 |  | 5 |  |  |
| COP(=O)(OC)C(Nc1ccccc1)c1cccc(O)c1 (racemic) | > 100 |  | > 100 |  |  |
| COc1ccc(C(Nc2cc(C)on2)P(=O)(OC)OC)cc1 (racemic) | 8 | 7.94 | 7.5 | 0.94 |  |
| COc1ccc(C(Nc2nc3c(C)cccc3s2)P(=O)(OC)OC)cc1 (racemic) | 8.75 | 8.71 | 8.5 | 0.97 |  |
| COP(=O)(OC)C(Nc1ccccc1)c1ccc([N+](=O)[O-])cc1 (racemic) | 8.95 | 8.91 | 5 | 0.56 |  |
| COP(=O)(OC)C(Nc1ccccc1)c1ccccc1O (racemic) | 8.95 | 8.91 | 5 | 0.56 |  |
| COc1ccc(C(Nc2ccccc2)P(=O)(OC)OC)cc1O (racemic) | 9.75 | 9.77 | 31 | 3.18 |  |
| COP(=O)(OC)C(C)(Nc1ccccc1)c1ccccc1 (racemic) | 13.5 | 13.5 | 6 | 0.44 |  |
| COc1cc(C(Nc2ccccc2)P(=O)(OC)OC)cc(OC)c1O (racemic) | 13.5 | 13.5 | 10 | 0.74 |  |
| COP(=O)(OC)C(/C=C/c1ccccc1)Nc1ccccc1 (racemic) | 17.5 | 17.4 | 8 | 0.46 |  |
| COc1ccccc1C(Nc1ccccc1)P(=O)(OC)OC (racemic) | 18 | 18.2 | 6 | 0.33 |  |
| COc1ccc(C(Nc2nc3c(Cl)cccc3s2)P(=O)(OC)OC)cc1 (racemic) | 22 | 21.9 |  |  |  |
| COP(=O)(OC)C(Nc1ccccc1)c1ccccc1Br (racemic) | 22.5 | 22.4 | 5.5 | 0.24 |  |
| COP(=O)(OC)C(Nc1ccccc1)c1ccccc1F (racemic) | 24 | 24 | 12 | 0.5 |  |
| COc1ccc(C(Nc2ccccc2)P(=O)(OC)OC)cc1 (racemic) | 25 | 25.1 | 5.5 | 0.22 |  |
| COP(=O)(OC)C(Nc1cc(C)on1)c1ccccc1 (racemic) | 30 | 30.2 |  |  |  |
| COP(=O)(OC)C(Nc1ccccc1)c1ccc(Cl)cc1 (racemic) | 36 | 36.3 | 39 | 1.08 |  |
| COP(=O)(OC)C(Nc1ccccc1)c1ccc(Br)cc1 (racemic) | 39 | 38.9 | 6.5 | 0.17 |  |
| COP(=O)(OC)C(Nc1ccccc1)c1cccc2ccccc12 (racemic) | 56 | 56.2 | > 100 |  |  |
| COP(=O)(OC)C(Nc1ccccc1)c1ccccn1 (racemic) | 90 | 89.1 | 5 | 0.06 |  |
| COP(=O)(OC)C(Nc1ccccc1)c1ccc2ccccc2c1 (racemic) | 91.5 | 91.2 | 6.1 | 0.07 |  |
| COc1cc(C(Nc2ccccc2)P(=O)(OC)OC)ccc1O (racemic) | 7.1 | 7.08 | 5 | 0.7 |  |
| COP(=O)(OC)C(Nc1ccccc1)c1ccc(O)cc1 (racemic) | 8 | 7.94 | 6.5 | 0.81 |  |
| C[C@@H]1[C@H](O)[C@@H](C)/C=C/C=C/C=C/C=C/C=C/C=C/C=C/[C@H](O[C@@H]2O[C@H](C)[C@@H](O)[C@H](N)[C@@H]2O)C[C@@H]2O[C@](O)(C[C@@H](O)C[C@@H](O)[C@H](O)CC[C@@H](O)C[C@@H](O)CC(=O)O[C@H]1C)C[C@H](O)[C@H]2C(=O)O [AMPHOTERICIN B] | 0.405 |  | 7 | 17.28 |  |
| CCCCCCCCCCCCCCCCOP(=O)([O-])OCC[N+](C)(C)C [MILTEFOSINE] |  |  |  |  | 144 |

— ChEMBL document CHEMBL3132764, “-Aminophosphonates as novel anti-leishmanial chemotypes: synthesis, biological evaluation, and CoMFA studies” (Medchemcomm, 2014)
